Results on six molecules are retold here after US7700717B2, “Photo-active backbone cyclized somatostatin analogs for photodynamic therapy and imaging” (DeveloGen Israel Ltd., priority 2002, dated 2010).

Series [1] relates to subcutaneously implanted H69 human lung cancer. The experiment in a line: Ex vivo biodistribution by fiber-optic spectrofluorimetry (FOS) in tissues of mice bearing H69 tumors. The conditions noted are these: for Fluorescence intensity (a.u.), Kidney / Fluorescence intensity (a.u.), Liver / Fluorescence intensity (a.u.), Lung / Fluorescence intensity (a.u.), Pancreas / Fluorescence intensity (a.u.), Skin / Fluorescence intensity (a.u.), Spleen / Fluorescence intensity (a.u.), Tumor: ex vivo, 24 hours after i.v. administration, FOS. The source says: An argon ion laser (Melles Griot, 43 series) was coupled to a spectrofluorophotometer (Shimadzu, model RF-5301PC) using a bifurcated fiber bundle (Oriel, Stratford, Conn., model 77533). Laser light (488 nm) was passed via one leg of the fiber bundle, the common end tip of the bundle was fixed at a distance of 1 mm from a tissue sample, while the end tip of the second leg was mounted in front of the entrance slit of the spectrofluorophotometer. Laser irradiation from the fiber was set to 5 mW, as measured with a laser power meter (Laserstar, Ophir, Israel). An average of three recordings was used for each data point.
For control, one mouse was injected with fluorescein.
Fluorescence measurements were performed: • 1. […] Ex vivo 24 hours post injection using FOS. • 3.

The test system is the same in series [2]. The conditions noted are these: mouse, iv.
Method: Balb/c nude mice xenografts inoculated subcutaneously with the human small cell lung cancer cell line, H69.
Hundred μl of each agent (1 mM stock) were dissolved in 0.5 ml of saline and injected intravenously. For control, one mouse was injected with fluorescein.
In vivo during 24 hours after agent administrations using point (˜1 mm^2 area) measurements by fiber-optic spectroscopic system (FOS). • 2. Ex vivo 24 hours post injection using FOS. • 3.
The target in another series is T1, hSST-R2 (Homo sapiens, UniProt P30874).
T1 construct: expressed in transfected cells
The experiment in a line: Inhibition of 125I-Tyr11-SRIF (SRIF-14) binding to membranes of CHO cells expressing cloned human SST-R2. The conditions noted are these: Table 2; affinity for hSST-R2, cloned human receptor in CHO cells. Here is the method:
The SST analogs were tested for their potency in inhibition of the binding of ^125I-Tyr^11-SRIF (based on the method described by Raynor et. al., Molecular Pharmacology 43: 838, 1993) to membrane preparations expressing transmembrane SST receptors (SST-R1, 2, 3, 4 or 5). The receptor preparations used for these tests were either from the cloned human receptors selectively and stably expressed in Chinese Hamster Ovary (CHO) cells or from cell lines naturally expressing the SST-Rs. Typically, cell membranes were homogenized in Tris buffer in the presence of protease inhibitors and incubated for 30-40 minutes with ^125I-Tyr^11-SRIF with different concentrations of the tested sample. The binding reactions were filtered, the filters were washed and the bound radioactivity was counted in […] after addition of scintillation solution. Non specific binding was defined as the radioactivity remaining bound in the presence of 1 μM unlabeled SRIF-14.
The receptor membrane preparations used for these tests were from the cloned human receptors selectively and stably expressed in CHO cells and the radiolabelled analog used was (3-[^125]tyrosyl^11)SRIF-14. Table 2 above describes the results of the binding assays of selected analogs to the human cloned SST-R2.
The compounds were tested at a concentration of 10 nM, for SRIF-14 displacement on hSST-R2 expressed cells.

Another series deals with SST-R2 and SST-R5. The conditions noted are these: cited from earlier work.
The next series has as its target hSST-R4 (Homo sapiens, UniProt P31391). The conditions noted are these: cited from earlier work.

Chain of hSST-R4 (P31391 whole entry): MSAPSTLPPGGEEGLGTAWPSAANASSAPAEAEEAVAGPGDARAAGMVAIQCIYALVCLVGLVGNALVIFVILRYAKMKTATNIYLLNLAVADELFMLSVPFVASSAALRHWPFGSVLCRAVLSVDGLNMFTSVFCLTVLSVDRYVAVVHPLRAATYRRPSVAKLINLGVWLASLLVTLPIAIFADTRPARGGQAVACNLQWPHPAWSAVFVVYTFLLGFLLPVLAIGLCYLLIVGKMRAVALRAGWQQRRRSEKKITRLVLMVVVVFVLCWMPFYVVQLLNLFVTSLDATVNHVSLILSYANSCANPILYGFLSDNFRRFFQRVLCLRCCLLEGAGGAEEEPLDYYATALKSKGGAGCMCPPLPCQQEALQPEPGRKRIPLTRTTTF
T1 sequence (P30874 whole entry): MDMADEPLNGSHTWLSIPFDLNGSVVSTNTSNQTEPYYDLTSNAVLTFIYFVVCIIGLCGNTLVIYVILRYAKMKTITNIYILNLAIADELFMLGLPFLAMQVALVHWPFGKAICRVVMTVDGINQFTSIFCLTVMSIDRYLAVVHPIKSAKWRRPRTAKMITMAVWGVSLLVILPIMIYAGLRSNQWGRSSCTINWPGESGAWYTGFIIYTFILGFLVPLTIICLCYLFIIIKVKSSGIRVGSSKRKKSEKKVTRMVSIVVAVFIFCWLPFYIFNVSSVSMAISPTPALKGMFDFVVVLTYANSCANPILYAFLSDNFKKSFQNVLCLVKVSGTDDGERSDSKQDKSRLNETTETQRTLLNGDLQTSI

In the case of `C[C@@H](O)[C@@H]1NC(=O)[C@H](CCCCN)NC(=O)[C@@H](Cc2c[nH]c3ccccc23)NC(=O)[C@H](Cc2c[nH]c3ccccc23)NC(=O)[C@H](Cc2ccccc2)NC(=O)CN(C(=O)CCCNC(=O)c2ccc3c(c2)C(=O)OC32c3ccc(O)cc3Oc3cc(O)ccc32)CCSSCCN(CC(N)=O)C(=O)[C@H](Cc2ccccc2)NC1=O` [Compound 48, 5- and 6-carboxyfluorescein-GABA-GlyS2*-Phe-Trp-DTrp-Lys-Thr-Phe-GlyS2*-NH2], in series [1], the “Fluorescence intensity (a.u.), Kidney” value came to 15 ± 6 a.u; the “Fluorescence intensity (a.u.), Liver” value was 10 ± 5 a.u; the “Fluorescence intensity (a.u.), Lung” value stood at 25 ± 8 a.u; the “Fluorescence intensity (a.u.), Pancreas” value worked out at 16 ± 5 a.u. Further, in series [1], the “Fluorescence intensity (a.u.), Skin” value turned out to be 90 ± 20 a.u; the “Fluorescence intensity (a.u.), Spleen” value came out at 7 ± 2 a.u; the “Fluorescence intensity (a.u.), Tumor” value turned out to be 50 ± 20 a.u.

On to `C[C@@H](O)[C@@H]1NC(=O)[C@H](CCCCN)NC(=O)[C@@H](Cc2c[nH]c3ccccc23)NC(=O)[C@H](Cc2c[nH]c3ccccc23)NC(=O)[C@H](Cc2ccccc2)NC(=O)CN(C(=O)[C@@H](Cc2ccccc2)NC(=O)CCNC(=S)Nc2ccc3c(c2)C(=O)OC32c3ccc(O)cc3Oc3cc(O)ccc32)CCSSCCN(CC(N)=O)C(=O)[C@H](Cc2ccccc2)NC1=O` [Compound 62, 5-(aminothionyl)fluorescein-βAla-DPhe-GlyS2*-Phe-Trp-DTrp-Lys-Thr-Phe-GlyS2*-NH2], for which, in series [1], the “Fluorescence intensity (a.u.), Kidney” value came out at 32 ± 5 a.u; the “Fluorescence intensity (a.u.), Liver” value amounted to 17 ± 3 a.u; the “Fluorescence intensity (a.u.), Lung” value is 37 ± 6 a.u; the “Fluorescence intensity (a.u.), Skin” value came out at 120 ± 18 a.u. Further, in series [1], the “Fluorescence intensity (a.u.), Spleen” value is reported as 4 ± 1 a.u and the “Fluorescence intensity (a.u.), Tumor” value stood at 106 ± 16 a.u. For the same molecule, in series [2], the “fluorescence in normal organs in ex vivo spectral images” value is “no (lungs and kidney) or little (dermis) fluorescence”; the “tumor fluorescence in ex vivo spectral images” value is “high and selective fluorescence”.

With `C[C@@H](O)[C@@H]1NC(=O)[C@H](CCCCN)NC(=O)[C@@H](Cc2c[nH]c3ccccc23)NC(=O)[C@H](Cc2c[nH]c3ccccc23)NC(=O)[C@H](Cc2ccccc2)NC(=O)CN(C(=O)[C@@H](Cc2ccccc2)NC(=O)CCNC(=O)c2ccc3c(c2)C(=O)OC32c3ccc(O)cc3Oc3cc(O)ccc32)CCSSCCN(CC(N)=O)C(=O)[C@H](Cc2ccccc2)NC1=O` [Compound 64, 5- and 6-carboxyfluorescein-βAla-DPhe-GlyS2*-Phe-Trp-DTrp-Lys-Thr-Phe-GlyS2*-NH2], in series [1], the “Fluorescence intensity (a.u.), Kidney” value was found to be 20 ± 3 a.u; the “Fluorescence intensity (a.u.), Liver” value amounted to 12 ± 2 a.u; the “Fluorescence intensity (a.u.), Lung” value was determined as 40 ± 6 a.u; the “Fluorescence intensity (a.u.), Skin” value was 120 ± 18 a.u. Moreover, in series [1], the “Fluorescence intensity (a.u.), Spleen” value is reported as 4 ± 1 a.u and the “Fluorescence intensity (a.u.), Tumor” value is recorded as 110 ± 17 a.u.

In the case of `C[C@@H](O)[C@@H]1NC(=O)[C@H](CCCCN)NC(=O)[C@@H](Cc2c[nH]c3ccccc23)NC(=O)[C@H](Cc2c[nH]c3ccccc23)NC(=O)[C@H](Cc2ccccc2)NC(=O)CN(C(=O)[C@@H](Cc2ccccc2)NC(=O)CCCCNC(=S)Nc2ccc3c(c2)C(=O)OC32c3ccc(O)cc3Oc3cc(O)ccc32)CCSSCCN(CC(N)=O)C(=O)[C@H](Cc2ccccc2)NC1=O` [Compound 70, 5-(aminothionyl)fluorescein-aminopentanoyl-DPhe-GlyS2*-Phe-Trp-DTrp-Lys-Thr-Phe-GlyS2*-NH2], in series [1], the “Fluorescence intensity (a.u.), Kidney” value is 18 ± 3 a.u; the “Fluorescence intensity (a.u.), Liver” value was 5 ± 1 a.u; the “Fluorescence intensity (a.u.), Lung” value is reported as 27 ± 4 a.u; the “Fluorescence intensity (a.u.), Pancreas” value is given as 10 ± 2 a.u. Besides, in series [1], the “Fluorescence intensity (a.u.), Skin” value amounted to 116 ± 17 a.u; the “Fluorescence intensity (a.u.), Spleen” value stood at 2 ± 0.3 a.u; the “Fluorescence intensity (a.u.), Tumor” value is 122 ± 18 a.u.

By IC50 is commonly meant the concentration at which inhibition is half-maximal. Higher therefore signals lower potency. Regarding `C[C@@H](O)[C@@H]1NC(=O)[C@H](CCCCN)NC(=O)[C@@H](Cc2c[nH]c3ccccc23)NC(=O)[C@H](Cc2c[nH]c3ccccc23)NC(=O)[C@H](Cc2ccccc2)NC(=O)[C@@H](NC(=O)[C@@H](Cc2ccccc2)NC(=O)CCCNC(=S)Nc2ccc3c(c2)C(=O)OC32c3ccc(O)cc3Oc3cc(O)ccc32)CSSCCN(CC(N)=O)C(=O)[C@H](Cc2ccccc2)NC1=O` [Compound 86, 5-(aminothionyl)fluorescein-GABA-DPhe-Cys*-Phe-Trp-DTrp-Lys-Thr-Phe-GlyS2*-NH2], in series [1], the “Fluorescence intensity (a.u.), Kidney” value was 23 ± 5 a.u; the “Fluorescence intensity (a.u.), Liver” value amounted to 13 ± 3 a.u; the “Fluorescence intensity (a.u.), Lung” value was found to be 70 ± 14 a.u; the “Fluorescence intensity (a.u.), Pancreas” value is recorded as 22 ± 6 a.u. Moreover, in series [1], the “Fluorescence intensity (a.u.), Skin” value was determined as 65 ± 13 a.u; the “Fluorescence intensity (a.u.), Spleen” value amounted to 7 ± 1.4 a.u; the “Fluorescence intensity (a.u.), Tumor” value turned out to be 626 ± 55 a.u. The “tissue accumulation / specificity to the tumor in words” value in series [1] (mouse, in vivo) was “particularly high specificity to the tumor”. In series [2], the “fluorescence in normal organs in ex vivo spectral images” value is reported as “no fluorescence in normal organs”; the “tumor fluorescence in ex vivo spectral images” value was “high and selective tumor fluorescence”. In addition, on hSST-R2, the IC50 worked out at 1.7 nM.

For “GABA*-Phe-Trp-DTrp-Lys-Thr-Phe-GlyC3*-NH2 (XFWWKTFG; not fully specified; backbone cyclized; GABA; C-terminal amide) [PTR 3173]”, the “SST receptor subtype selectivity” value with SST-R2 and SST-R5 is “selective for SST-R2 and SST-R5”. In the series with hSST-R4, the “affinity to hSST-R4” value is on record as “moderate affinity”.
